Test results published in patent publication US11976051B1, “N′-(2-(5-(4-chlorophenyl)-1,3,4-oxadiazol-2-ylthio)acetoxy)-2-naphthimidamide as an antimicrobial compound” (KING FAISAL UNIVERSITY, priority 2023, dated 2024).

What was measured:
Aspergillus flavus = assay: Agar plate disc-diffusion, antifungal activity; type: cell-based; settings: Sabouraud's dextrose agar, 72 h
Method: (§1) The agar plate disc-diffusion method was applied. Sterilized filter papers (6 mm in diameter) were wetted with 10 NL of a solution of N′-(2-(5-(4-chlorophenyl)-1,3,4-oxadiazol-2-ylthio)acetoxy)-2-naphthimidamide (3) to be tested, containing 10 mg/mL in DMSO, and the discs were allowed to air dry. The discs were then placed onto the surface of agar plates (nutrient agar for bacteria and Sabouraud's dextrose agar for fungi) seeded with the test organism. Each plate contained 15 mL of the agar medium, previously seeded with 0.2 mL of the broth culture of each organism pregrown for 18 h. The plates were incubated at 37° C. for 48 h, and 72 h for fungi. The inhibition zones was measured in mm. Discs impregnated with DMSO were used as a control, and its inhibition zone was subtracted from the tested compound actual inhibition zone.
(§2) The antibacterial activity was screened against gram positive bacteria namely Bacillus cereus and Staphylococcus aureus and gram-negative bacterial strains namely Pseudomonas aeruginosa and Escherichia coli, while the antifungal activity was screened against Aspergillus flavus and Chrysosporium keratinophilum as shown in Table 1 and 2.

[1] = test system: Chrysosporium keratinophilum; assay: Agar plate disc-diffusion, antifungal activity; type: cell-based; settings: Sabouraud's dextrose agar, 72 h
Method: as §1, with “Sterilized filter papers (6 mm in diameter) were wetted with 10 NL of a solution of N′-(2-(5-(4-chlorophenyl)-1,3,4-oxadiazol-2-ylthio)acetoxy)-2-naphthimidamide (3) to be tested, containing 10 mg/mL in DMSO, and the discs were allowed to air dry.” left out
as §2

Bacillus cereus = assay: Agar plate disc-diffusion, antibacterial activity; type: cell-based; settings: nutrient agar, 37° C., 48 h
Method: as §1, with “Sterilized filter papers (6 mm in diameter) were wetted with 10 NL of a solution of N′-(2-(5-(4-chlorophenyl)-1,3,4-oxadiazol-2-ylthio)acetoxy)-2-naphthimidamide (3) to be tested, containing 10 mg/mL in DMSO, and the discs were allowed to air dry.” left out
as §2

Staphylococcus aureus = assay: Agar plate disc-diffusion, antibacterial activity; type: cell-based; settings: nutrient agar, 37° C., 48 h
Method: as §1, with “Sterilized filter papers (6 mm in diameter) were wetted with 10 NL of a solution of N′-(2-(5-(4-chlorophenyl)-1,3,4-oxadiazol-2-ylthio)acetoxy)-2-naphthimidamide (3) to be tested, containing 10 mg/mL in DMSO, and the discs were allowed to air dry.” left out
as §2

Pseudomonas aeruginosa = assay: Agar plate disc-diffusion, antibacterial activity; type: cell-based; settings: nutrient agar, 37° C., 48 h
Method: as §1, with “Sterilized filter papers (6 mm in diameter) were wetted with 10 NL of a solution of N′-(2-(5-(4-chlorophenyl)-1,3,4-oxadiazol-2-ylthio)acetoxy)-2-naphthimidamide (3) to be tested, containing 10 mg/mL in DMSO, and the discs were allowed to air dry.” left out
as §2

Escherichia coli = assay: Agar plate disc-diffusion, antibacterial activity; type: cell-based; settings: nutrient agar, 37° C., 48 h
Method: as §1, §2

[2] = B = concentration of comp. = 30,000 μL
[3] = C = concentration of comp. = 50,000 μL
[4] = A = concentration of comp. = 10,000 μg/mL
[5] = A = concentration of comp. = 10 mg/mL

SMILES: N/C(=N\OC(=O)CSc1nnc(-c2ccc(Cl)cc2)o1)c1ccc2ccccc2c1 [Compound 3, N′-(2-(5-(4-chlorophenyl)-1,3,4-oxadiazol-2-ylthio)acetoxy)-2-naphthimidamide]
- inhibition zone, Aspergillus flavus (Aspergillus flavus; A = concentration of comp. = 10,000 μL): 25 mm
- inhibition zone, Aspergillus flavus (Aspergillus flavus; [2]): 28 mm
- inhibition zone, Aspergillus flavus (Aspergillus flavus; [3]): 37 mm
- inhibition zone, Chrysosporium keratinophilum [1, 4]: 23 mm
- inhibition zone, Chrysosporium keratinophilum [1, 2]: 29 mm
- inhibition zone, Chrysosporium keratinophilum [1, 3]: 38 mm
- melting point: 181 to 182 °C
- inhibition zone, Bacillus Cereus (Bacillus cereus; [5]): 31 mm
- inhibition zone, Bacillus Cereus (Bacillus cereus; [2]): 36 mm
- inhibition zone, Bacillus Cereus (Bacillus cereus; [3]): 43 mm
- inhibition zone, Staphylococcus aureus (Staphylococcus aureus; [5]): 17 mm
- inhibition zone, Staphylococcus aureus (Staphylococcus aureus; [2]): 24 mm
- inhibition zone, Staphylococcus aureus (Staphylococcus aureus; [3]): 29 mm
- inhibition zone, Pseudomonas aeruginosa (Pseudomonas aeruginosa; [5]): 26 mm
- inhibition zone, Pseudomonas aeruginosa (Pseudomonas aeruginosa; [2]): 33 mm
- inhibition zone, Pseudomonas aeruginosa (Pseudomonas aeruginosa; [3]): 39 mm
- inhibition zone, Escherichia coli (Escherichia coli; [4]): 35 mm
- inhibition zone, Escherichia coli (Escherichia coli; [2]): 41 mm
- inhibition zone, Escherichia coli (Escherichia coli; [3]): 47 mm
